Patent US20140275257A1, “N-ACETYL CYSTEINE COMPOSITIONS IN THE TREATMENT OF SYSTEMIC LUPUS ERYTHEMATOSUS” (Foundation for the State University of New York, priority 2013, published 2014)

Tests used:
[1] = test system: idiopathic pulmonary fibrosis patients; settings: "high-dose" oral NAC (1.8 g/day); Demedts et al. (2005); cited from earlier work
mTOR = mTOR activity by phosphorylation of S6 ribosomal protein (pS6-RP) in T-cell subsets; format: in vivo, human; settings: for pS6-RPhi T cells in the DN T-cell compartment: baseline 22.5±3.7%
Method: mTOR activity was assessed by phosphorylation of its downstream substrate S6 ribosomal protein (pS6-RP) using a monoclonal antibody to pS6-RP (Cell Signaling; Beverly, Mass.; Cat. No. 4851) in cells permeabilized with Cytofix/CytopermPlus (BD Biosciences). […] FIG. 4A: Assessment of pS6-RP in CD3^+, CD4^+, CD8^+, and DN T cells from control (blue histograms) and lupus donors (red histograms). Blue/red values show the percentage of cell populations with increased mTOR activity in control and lupus T-cell subsets, respectively. FIG. 4B: Cumulative analysis of mTOR activity in T-cell subsets of all lupus patients relative to all healthy controls. Values represent mean±SEM of cell populations with increased mTOR activity. p values reflect comparison of lupus and healthy donors with unpaired two-tailed t-test before treatment. FIG. 4C: Effect of NAC on mTOR activity measured by the prevalence of pS6-RP^hi T cells in lupus patients exposed to all doses considered together. p values reflect comparison to pre-treatment visit 1 using two-tailed paired t-test. FIG. 4D: Effect of NAC on CD3/CD28-induced mTOR activity in T cell subsets of lupus patients exposed to all doses considered together.

SLE patients = assay: SLE Disease Activity Index (SLEDAI) in NAC pilot study; format: in vivo, human
From the text: SLEDAI offers an assessment tool for assessing disease activity in SLE. Twenty-four features that are attributed to lupus are listed, with a weighted score given to any one that is present. The more serious manifestations (such as renal, neurologic, and vasculitis) are weighted more than others (such as cutaneous manifestations). The maximum possible score is 105. (Lam, G. K. W. and Petri, M., “Assessment of systemic lupus erthematosus,” Clin. Exp. Rheumatol., 23 (Supp. 39): S120-S132 (2005)).
A complete physical examination of the cardiovascular, respiratory, gastrointestinal, musculoskeletal, neurological systems, skin, head, neck, sinuses, nasal and oral cavities were performed at each visit. SLE disease activity was assessed by using the British Isles Lupus Assessment Group (BILAG) (Isenberg, D. A. et al., “BILAG 2004. Development and initial validation of an updated version of the British Isles Lupus Assessment Group's disease activity index for patients with systemic lupus erythematosus,” Rheumatology 44(7): 902-906 (2005)) and SLE Disease Activity Index (SLEDAI) (Bombardier, C. et al., “Derivation of the SLEDAI. A disease activity index for lupus patients,” Arth. Rheum., 35: 630-640 (1992)). The concurrent use and dosage of prednisone and other medications were documented.
Lupus disease activity was measured by SLEDAI and BILAG and fatigue was evaluated by FAC at baseline (visit 1) as well as monthly during a 3-month intervention (visits 2-4) and after a 1-month washout period (visit 5).
Overall clinical effectiveness of NAC relative to placebo was analyzed with multilevel modeling as implemented in the STATA routine XTMIXED (from StataCorp, College Station, Tex.), with the three nested levels being drug group, subject within drug group and study visit within subject. All models included fixed effects for drug group, study visit and the drug group by study visit interaction along with random intercepts at each design level. […] The reduction in lupus disease activity SLEDAI scores was greater for the NAC than placebo group, as indicated by a significant visit by drug interaction (z=−2.14, p=0.033). The reduction in BILAG scores was also greater for NAC than placebo group. The overall effect was statistically significant as indicated by a significant visit by drug interaction (z=−2.62, p=0.009). Two tailed paired t-test was used to assess the effects of placebo and of each and all NAC doses on clinical indices and biomarkers recorded on visits 2-5 relative to visit 1; p<0.05 was considered significant. Patients and controls were compared with two-tailed unpaired t-test.

[2] = test system: murine lupus (female NZB×NZW F1 mouse model); settings: Suwannaroj et al. (2001); cited from earlier work
[3] = test system: GSH in peripheral blood lymphocytes (PBL); assay: HPLC assay of GSH in peripheral blood lymphocytes (PBL) of SLE patients; format: in vivo, human
Method: Reduced glutathione (GSH) was measured by reverse phase ion-exchange HPLC using UV detection at 365 nm, as described in Gergely, P. J. et al., “Mitochondrial hyperpolarization and ATP depletion in patients with systemic lupus erythematosus,” Arth. Rheum., 46: 175-190 (2002); and Hanczko, R. et al., “Prevention of hepatocarcinogenesis and acetaminophen-induced liver failure in transaldolase-deficient mice by N-acetylcysteine,” J. Clin. Invest., 119: 1546-1557 (2009). The disclosures of each of these references are incorporated by reference herein in their entirety.
GSH was measured in whole blood and peripheral blood lymphocytes (PBL) before (visit 1; 0 h) and after the first NAC/placebo dose (visit 1; 3 h and 6 h) and upon each monthly follow-up visit (visits 2-4: between 9-11 am after having taken the last NAC/placebo capsule 8 pm the night before), and after 1 month wash-out (visit 5). HPLC analysis required ˜0.25 ml of whole blood and 5×10^6 PBL which were obtained from a total of 10 ml of blood collected at each time point.

## CC(=O)N[C@@H](CS)C(=O)O [NAC, N-acetyl-L-cysteine]
[1]
  disease severity in idiopathic pulmonary fibrosis: diminished disease severity
mTOR; after 2 months, p=0.0104
  pS6-RPhi T cells in the DN T-cell compartment: 16.9±2.5%
mTOR; after 3 months, p=0.0095
  pS6-RPhi T cells in the DN T-cell compartment: 16.4±2.4%
mTOR; after 4 months, p=0.0009
  pS6-RPhi T cells in the DN T-cell compartment: 12.1±2.4%
mTOR; all T cells after 2 months and 3 months, rebounded after washout
  CD3/CD28-induced mTOR activation: diminished
SLE patients; Dose 1 group, placebo 2 of 9
  patients with significant improvement (SLEDAI): 3 of 9
SLE patients; Dose 2 group, placebo 2 of 9
  patients with significant improvement (SLEDAI): 4 of 9
SLE patients; Dose 3 group, improvements of SLEDAI of 3 or more, p=0.0406 relative to placebo
  patients with significant improvement (SLEDAI): 5 of 6
SLE patients; NAC dose 1 (1.2 g/day)
  effect on SLE disease activity, SLEDAI: did not influence
SLE patients; NAC doses 2 and 3 combined, visit 2 (1 month), baseline 5.78, p=0.0007
  SLEDAI: 3.6
SLE patients; NAC doses 2 and 3 combined, visit 3 (2 months), baseline 5.78, p=0.0009
  SLEDAI: 4.0
SLE patients; NAC doses 2 and 3 combined, visit 4 (3 months), baseline 5.78, p=0.0030
  SLEDAI: 4.9
SLE patients; NAC doses 2 and 3 combined, visit 5 (after 1 month washout), baseline 5.78, p=0.0046
  SLEDAI: 4.4
SLE patients; all patients treated with NAC, after 1-month (visit 2), baseline 5.3, p=0.0013
  SLEDAI: 3.5
SLE patients; all patients treated with NAC, after 2-month treatment (visit 3), baseline 5.3, p=0.048
  SLEDAI: 3.7
SLE patients; visit by drug interaction, XTMIXED z=−2.14, p=0.033
  reduction in SLEDAI relative to placebo (multilevel modeling): greater in the NAC than placebo group
[2]
  outcome of murine lupus in vivo: improves the outcome
[3]; after 3-month treatment with NAC doses 2 and 3 considered together (visit 4; p=0.027)
  GSH in PBL: increased
[3]; after one month washout, NAC dose 3 or doses 2 and 3 combined
  GSH in PBL: dropped below baseline
[3]; single NAC dose of 1.2 g, after 6 h (p=0.022)
  GSH in PBL: increased
[3]; single NAC dose of 2.4 g, after 3 h (p=0.032) and 6 h (p=0.003)
  GSH in PBL: increased
